System: depressive patient
Experiment: Fluctuation in the difference of Lyapunov exponent and entropy (mirror dynamic) under medication
Format: in vivo, human
Details: Patient A or Patient B, early stages of treatment, FIG. 15
Method: Taking for an example the case where the action that may change a biological state is a medication, described below is a judging method for the symmetric property of Lyapunov exponent and entropy directly from the graph where the variations of these exponents with time are recorded.
This means, in other words, there exist fluctuations in the difference between Lyapunov exponent and entropy, and such a state can be called “mirror dynamic”. […] On the other hand, the fluctuation in the difference (shadow area) of Lyapunov exponent and entropy is minor in the early stages of treatment for Patient B, and therefore it can be judged that the effectiveness of medication of cloxazolam (1 mg) is low. […]
In the method according to this embodiment for judging the efficacy of an action, measurements of Lyapunov exponent and entropy are carried out at least twice, i.e. before and after the medication. […] Lyapunov exponent and entropy measured at least once after the medication are compared to the results before the medication, the variation in the symmetric property between the Lyapunov exponent and the entropy and the directional property of temporal variation in the difference between the Lyapunov exponent and the entropy, and then the effectiveness of the drug can be judged. […]

SMILES: O=C1CN2CCOC2(c2ccccc2Cl)c2cc(Cl)ccc2N1 (stereo not shown) [cloxazolam, Cloxazolam]
- effectiveness of medication judged from fluctuation in the difference (shadow area) of Lyapunov exponent and entropy: low

Source: US20040137639A1, “Method of judging efficacy of biological state action affecting bioligical state, judging apparatus, judging system, judging program and recording medium holding the program” (priority 2001, published 2004)
